According to patent publication US4138554A, “7-[D-α-(4-Hydroxy-1,5-naphthyridine-3-carboxamido)-α-phenyl (and p-hydroxyphenyl)acetamido]-3-carbamoyloxymethyl-3-cephem-4-carboxylic acids” (priority 1977, dated 1979):
Like-named read-outs stand apart in the source and are kept apart here.

How the values were obtained:
Pseudomonas aeruginosa = assay: MIC by agar dilution against 61 strains of Pseudomonas aeruginosa, secondary evaluation; type: cell-based; settings: Pseudomonas aeruginosa, read-out: MIC
Outline: (§1)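 Compounds were diluted two-fold serially into Mueller-Hinton agar, then organisms were applied using Steers' apparatus and MICs read. The primary panel comprised 31 test organisms, and the secondary evaluation 61 strains of P. aeruginosa.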

Ps. aeruginosa A9843 = assay: Median curative dose in mice, infection with Ps. aeruginosa; type: in vivo; settings: Pseudomonas aeruginosa, A9843, sc
Text: (§2) Median Curative Dose in Mgm./Kg.
(§3) Upon Subcutaneous Injection in Mice

S. marcescens = assay: MIC by serial two-fold agar dilution (Mueller-Hinton agar), S. marcescens; type: cell-based; settings: Serratia marcescens; S. marcescens, Table 1; read-out: MIC
Outline: (§4)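 Serial two-fold agar dilution on Mueller-Hinton agar, inoculated with a Steers' apparatus. Primary screening used 31 test organisms; secondary evaluation used 61 Pseudomonas aeruginosa strains. Relative activity values are mean % of MIC against sulbenicillin.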

E. coli Juhl = assay: Median curative dose in mice, infection with E. coli Juhl; type: in vivo; settings: Escherichia coli, sc; subcutaneous injection in mice, E. coli Juhl, Table 4; read-out: Median Curative Dose (PD50)
Text: as §2, §3

S. aureus = assay: MIC by serial two-fold agar dilution (Mueller-Hinton agar), S. aureus; type: cell-based; settings: Staphylococcus aureus, read-out: MIC
Outline: as §1

E. cloacae = assay: MIC by serial two-fold agar dilution (Mueller-Hinton agar), E. cloacae; type: cell-based; settings: Enterobacter cloacae, Table 1
Outline: as §1

P. vulgaris = assay: MIC by serial two-fold agar dilution (Mueller-Hinton agar), P. vulgaris; type: cell-based; settings: Proteus vulgaris; P. vulgaris, Table 1; read-out: MIC
Outline: as §4

P. mirabilis = assay: MIC by serial two-fold agar dilution (Mueller-Hinton agar), P. mirabilis; type: cell-based; settings: Proteus mirabilis; P. mirabilis, Table 1; read-out: MIC
Outline: as §4

Klebsiella sp. = assay: MIC by serial two-fold agar dilution (Mueller-Hinton agar), Klebsiella sp.; type: cell-based; settings: Klebsiella sp., Table 1; read-out: MIC
Outline: as §4

S. enteritidis = assay: MIC by serial two-fold agar dilution (Mueller-Hinton agar), S. enteritidis; type: cell-based; settings: Salmonella enterica; S. enteritidis, Table 1; read-out: MIC
Outline: as §4

P. aeruginosa = assay: MIC by serial two-fold agar dilution (Mueller-Hinton agar), P. aeruginosa, primary screening; type: cell-based; settings: Pseudomonas aeruginosa, Table 1, read-out: MIC
Outline: as §1

Pseudomonas (6 strains) = assay: Mean % relative activity (MIC) vs sulbenicillin, Pseudomonas (6 strains); type: cell-based; settings: for Mean % Relative Activity (SPBC = 100%): P. aerug. (6 strains)
Description: Minimum inhibitory concentrations (MIC) of BB-S520 were determined by serial two-fold agar dilution method using Steers' apparatus on Meuller-Hinton agar plate against 31 test organisms for the primary screening and also against 61 strains of Pseudomonas aeruginosa for the secondary evaluation. The results are shown in Table 1 and Table 2 along with those of BB-S514 and sulbenicillin.
Minimum inhibitory concentrations (MIC) of cephalosporins in the present study were determined by serial two-fold agar dilution method using Steers' apparatus on Mueller-Hinton agar plate against 31 test organisms for the primary screening and also against 61 strains of Pseudomonas aeruginosa for the secondary evaluation.

NC(=O)OCC1=C(C(=O)O)N2C(=O)C(NC(=O)[C@H](NC(=O)c3cnc4cccnc4c3O)c3ccccc3)[C@H]2SC1 (stereo partly drawn) [BB-S520, Sodium 7-[D-α-(4-hydroxy-1,5-naphthyridine-3-carboxamido)-α-phenylacetamido]-3-carbamoyloxymethyl-3-cephem-4-carboxylate]
MIC (Pseudomonas aeruginosa; BBRI Pa-No. 39, Table 7): 1.6 µg/mL
MIC (Pseudomonas aeruginosa; BBRI Pa-No. 41, Table 2): 3.1 µg/mL
MIC (Pseudomonas aeruginosa; BBRI Pa-No. 41, Table 7): 3.1 µg/mL
MIC (Pseudomonas aeruginosa; BBRI Pa-No. 42, Table 2): 6.3 µg/mL
MIC (Pseudomonas aeruginosa; BBRI Pa-No. 42, Table 7): 1.6 µg/mL
MIC (Pseudomonas aeruginosa; BBRI Pa-No. 43, Table 2): 6.3 µg/mL
MIC (Pseudomonas aeruginosa; BBRI Pa-No. 43, Table 7): 3.1 µg/mL
MIC (Pseudomonas aeruginosa; BBRI Pa-No. 44 (unnamed strain), Table 7): 3.1 µg/mL
MIC (Pseudomonas aeruginosa; BBRI Pa-No. 44, Table 2): 6.3 µg/mL
MIC (Pseudomonas aeruginosa; BBRI Pa-No. 51, Table 2): 3.1 µg/mL
MIC (Pseudomonas aeruginosa; BBRI Pa-No. 51, Table 7): 1.6 µg/mL
MIC (Pseudomonas aeruginosa; BBRI Pa-No. 52, Table 2): 3.1 µg/mL
MIC (Pseudomonas aeruginosa; BBRI Pa-No. 52, Table 7): 3.1 µg/mL
MIC (Pseudomonas aeruginosa; BBRI Pa-No. 53, Table 2): 3.1 µg/mL
MIC (Pseudomonas aeruginosa; BBRI Pa-No. 53, Table 7): 1.6 µg/mL
MIC (Pseudomonas aeruginosa; BBRI Pa-No. 54, Table 2): 3.1 µg/mL
MIC (Pseudomonas aeruginosa; BBRI Pa-No. 54, Table 7): 1.6 µg/mL
MIC (Pseudomonas aeruginosa; BBRI Pa-No. 55, Table 2): 3.1 µg/mL
MIC (Pseudomonas aeruginosa; BBRI Pa-No. 55, Table 7): 3.1 µg/mL
MIC (Pseudomonas aeruginosa; BBRI Pa-No. 56, Table 2): 3.1 µg/mL
MIC (Pseudomonas aeruginosa; BBRI Pa-No. 56, Table 7): 3.1 µg/mL
MIC (Pseudomonas aeruginosa; BBRI Pa-No. 57, Table 2): 3.1 µg/mL
MIC (Pseudomonas aeruginosa; BBRI Pa-No. 57, Table 7): 1.6 µg/mL
MIC (Pseudomonas aeruginosa; BBRI Pa-No. 58, Table 2): 6.3 µg/mL
MIC (Pseudomonas aeruginosa; BBRI Pa-No. 58, Table 7): 3.1 µg/mL
MIC (Pseudomonas aeruginosa; BBRI Pa-No. 59, Table 2): 6.3 µg/mL
MIC (Pseudomonas aeruginosa; BBRI Pa-No. 59, Table 7): 1.6 µg/mL
MIC (Pseudomonas aeruginosa; BBRI Pa-No. 60, Table 2): 3.1 µg/mL
MIC (Pseudomonas aeruginosa; BBRI Pa-No. 60, Table 7): 1.6 µg/mL
MIC (Pseudomonas aeruginosa; BBRI Pa-No. 61, Table 2): 6.3 µg/mL
MIC (Pseudomonas aeruginosa; BBRI Pa-No. 61, Table 7): 1.6 µg/mL
MIC (Pseudomonas aeruginosa; BBRI Pa-No. 62, Table 2): 6.3 µg/mL
MIC (Pseudomonas aeruginosa; BBRI Pa-No. 62, Table 7): 50 µg/mL
MIC (Pseudomonas aeruginosa; BBRI Pa-No. 64, Table 2): 3.1 µg/mL
MIC (Pseudomonas aeruginosa; BBRI Pa-No. 64, Table 7): 3.1 µg/mL
MIC (Pseudomonas aeruginosa; BBRI Pa-No. 65, Table 2): 3.1 µg/mL
MIC (Pseudomonas aeruginosa; BBRI Pa-No. 65, Table 7): 1.6 µg/mL
MIC (Pseudomonas aeruginosa; BBRI Pa-No. 66, Table 2): 3.1 µg/mL
MIC (Pseudomonas aeruginosa; BBRI Pa-No. 66, Table 7): 1.6 µg/mL
MIC (Pseudomonas aeruginosa; BBRI Pa-No. 67, Table 2): 6.3 µg/mL
MIC (Pseudomonas aeruginosa; BBRI Pa-No. 67, Table 7): 3.1 µg/mL
MIC (Pseudomonas aeruginosa; BBRI Pa-No. 68, Table 2): 6.3 µg/mL
MIC (Pseudomonas aeruginosa; BBRI Pa-No. 68, Table 7): 3.1 µg/mL
MIC (Pseudomonas aeruginosa; BBRI Pa-No. 69, Table 2): 12.5 µg/mL
MIC (Pseudomonas aeruginosa; BBRI Pa-No. 69, Table 7): 6.3 µg/mL
MIC (Pseudomonas aeruginosa; BBRI Pa-No. 70, K-Ps102 (CR-102), Table 2): 3.1 µg/mL
MIC (Pseudomonas aeruginosa; BBRI Pa-No. 70, K-Ps102(CR-102), Table 7): 1.6 µg/mL
MIC (Pseudomonas aeruginosa; GN315, BBRI Pa-No. 27, GN315, Table 2): 3.1 µg/mL
MIC (Pseudomonas aeruginosa; GN315, BBRI Pa-No. 27, GN315, Table 7): 1.6 µg/mL
MIC (Pseudomonas aeruginosa; GN4925, BBRI Pa-No. 44, GN4925, Table 7): 6.3 µg/mL
MIC (Pseudomonas aeruginosa; GN4925, BBRI Pa-No. 45, GN4925, Table 2): 6.3 µg/mL
ED50 (Ps. aeruginosa A9843; mice, P. aerug. A9843 infection, Table 5, read-out: PD50): 37 mg/kg
ED50 (Ps. aeruginosa A9843; subcutaneous injection in mice, Ps. aeruginosa, Table 4, read-out: Median Curative Dose (PD50)): 37 mg/kg
MIC (S. marcescens): > 100 µg/mL
ED50 (E. coli Juhl): 1.8 mg/kg
MIC (S. aureus; S. aureus BX-1633, Table 1): 0.8 µg/mL
MIC (S. aureus; S. aureus Smith (1st line), Table 1): 0.8 µg/mL
MIC (S. aureus; S. aureus Smith (2nd line), Table 1): 1.6 µg/mL
MIC (S. aureus; S. aureus, unnamed strain (4th S. aureus line), Table 1): 25 µg/mL
MIC (S. aureus; S. aureus, unnamed strain (5th S. aureus line), Table 1): 1.6 µg/mL
MIC (S. aureus; S. aureus, unnamed strain (6th S. aureus line), Table 1): 50 µg/mL
MIC (E. cloacae; E. cloacae (1st line)): 12.5 µg/mL
MIC (E. cloacae; E. cloacae (2nd line)): 50 µg/mL
MIC (E. cloacae; E. cloacae (3rd line)): 25 µg/mL
MIC (P. vulgaris): 100 µg/mL
MIC (P. mirabilis): 0.4 µg/mL
MIC (Klebsiella sp.): 3.1 µg/mL
MIC (S. enteritidis): 3.1 µg/mL
MIC (P. aeruginosa; P. aeruginosa (1st line)): 1.6 µg/mL
MIC (P. aeruginosa; P. aeruginosa (2nd line)): 3.1 µg/mL
MIC (P. aeruginosa; P. aeruginosa (3rd line)): 3.1 µg/mL
MIC (P. aeruginosa; P. aeruginosa (4th line)): 12.5 µg/mL
MIC (P. aeruginosa; P. aeruginosa (5th line)): 1.6 µg/mL
MIC (P. aeruginosa; P. aeruginosa (6th line)): 1.6 µg/mL
Mean % Relative Activity (SPBC = 100%) (Pseudomonas (6 strains); lot 1, Table 5): 635%
Mean % Relative Activity (SPBC = 100%) (Pseudomonas (6 strains); lot 2, Table 5): 712%
Mean % Relative Activity (Sulbenicillin = 100%) (Pseudomonas (6 strains); Pseudomonas (6 strains), from geometric means of MICs in Table 1): 635%
